Assay results: patent publication US20140155445A1, “Compounds and Methods for Treating Cancer and Diseases of the Central Nervous System” (Osta Biotechnologies Inc., priority 2007, published 2014)
Where a name gives a salt, the structure may show the parent alone. Read-outs that look alike come from different tables or passages of the source.

Key:
HO-2 (rat brain) = target: T1, HO-2 (rat brain) (Rattus norvegicus, UniProt P23711); experiment: HO enzymatic activity in rat brain microsomal fraction (CO formed from methemalbumin, gas chromatography); assay type: biochemical
T1 construct: brain microsomes were used as a source of HO-2; from tissue; host or cells: brain microsomal fraction of adult male Sprague-Dawley rats
T1 sequence (P23711 1-315): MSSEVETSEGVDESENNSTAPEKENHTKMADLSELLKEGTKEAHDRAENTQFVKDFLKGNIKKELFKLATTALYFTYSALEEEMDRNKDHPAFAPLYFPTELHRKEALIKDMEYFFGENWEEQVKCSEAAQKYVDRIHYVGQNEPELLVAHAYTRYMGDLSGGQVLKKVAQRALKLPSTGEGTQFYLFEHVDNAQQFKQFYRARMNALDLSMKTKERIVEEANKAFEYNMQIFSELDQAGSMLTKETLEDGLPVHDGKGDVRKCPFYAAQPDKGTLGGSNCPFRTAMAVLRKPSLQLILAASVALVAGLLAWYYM
Procedure: (§1) Incubations for HO activity analysis were done under conditions for which the rate of CO formation (pmol CO×min^−1×mg protein^−1) was linear with respect to time and microsomal protein concentration. Briefly, reaction mixtures (150 μL) consisting of 100 mM phosphate buffer (pH 7.4), 50 μM methemalbumin, and 1 mg/mL protein were pre-incubated with the inhibitors at final concentrations ranging from 0.1-100 μM for 10 minutes at 37° C. Reactions were initiated by adding NADPH at a final concentration of 1 mM and incubations were performed for an additional 15 minutes at 37° C.
(§2) Incubations for HO activity analysis were done under conditions for which the rate of CO formation (pmol CO/mg protein/minute) was linear with respect to time and microsomal protein concentration. Briefly, reaction mixtures (150 μL) consisting of 100 mM phosphate buffer (pH 7.4), 50 μM methemalbumin and 1 mg/mL protein were pre-incubated with the vehicle (ethanol or water in which the inhibitors were dissolved), or inhibitors at final concentrations ranging from 0.1-1000 μM for 10 minutes at 37° C. Reactions were initiated by adding β-NADPH at a final concentration of 1 mM and incubations were carried out for an additional 15 minutes at 37° C. Reactions were stopped by instantly freezing the reaction mixture on pulverized dry ice and CO formation was measured by gas chromatography using a TA 3000R Process Gas Analyzer (Trace Analytical/Ametek, Newark, Del., USA).
(§3) The values on the abscissa represent the decimal logarithm of the inhibitor's concentration (in μM), whereas the values of the activity on the ordinate are expressed as a percentage of the control experiments without inhibitor.
(§4) The IC50 values for the replicate experiments were employed to generate the reported standard deviation value.

HO-1 (rat spleen) = target: T2, HO-1 (rat spleen) (Rattus norvegicus, UniProt P06762); experiment: HO enzymatic activity in rat spleen microsomal fraction (CO formed from methemalbumin, gas chromatography); assay type: biochemical
T2 construct: Spleen microsomes were used as a source of HO-1; from tissue; host or cells: spleen microsomal fraction of adult male Sprague-Dawley rats
T2 sequence (P06762 1-289): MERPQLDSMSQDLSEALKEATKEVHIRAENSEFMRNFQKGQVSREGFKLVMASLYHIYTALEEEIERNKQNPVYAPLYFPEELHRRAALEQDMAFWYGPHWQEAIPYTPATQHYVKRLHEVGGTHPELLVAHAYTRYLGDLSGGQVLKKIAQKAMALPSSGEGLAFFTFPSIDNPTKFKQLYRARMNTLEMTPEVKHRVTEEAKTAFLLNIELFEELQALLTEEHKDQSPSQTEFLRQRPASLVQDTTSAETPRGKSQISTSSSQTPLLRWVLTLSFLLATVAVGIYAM
Procedure: as §1, §2, §3, §4

[1] = rat brain microsomes, average ± standard deviation of replicate experiments, read-out: IC50 HO-2 (rat brain)/μM
[2] = rat spleen microsomes, average ± standard deviation of replicate experiments, read-out: IC50 HO-1 (rat spleen)/μM
[3] = rat brain microsomes, average ± standard deviation of replicate experiments
[4] = rat spleen microsomes, average ± standard deviation of replicate experiments

Row | SMILES | IC50 (HO-2 (rat brain); [1]) | IC50 (HO-1 (rat spleen); [2]) | other results
1 | Brc1ccc(CNCc2cccnc2)cc1 | > 100 µM | > 100 µM | –
2 | c1ccc(CNCCCn2ccnc2)cc1 | > 100 µM | > 100 µM | –
3 | c1ccc2[nH]c(NC3CCNCC3)nc2c1 | > 100 µM | > 100 µM | –
4 | CCOC(=O)N1CCC(Nc2nc3ccccc3[nH]2)CC1 | > 100 µM | > 100 µM | –
5 | CCOC(=O)N1CCC(Nc2nc3ccccc3n2Cc2ccc(F)cc2)CC1 | > 100 µM | > 100 µM | –
6 | c1cn(C2C3CC4CC(C3)CC2C4)cn1 (stereo not shown) | > 100 µM | > 100 µM | –
7 | O=C(Cn1ccnc1)c1cccs1 | > 100 µM | > 100 µM | –
8 | COc1ccc(CCN2CCC(Nc3nc4ccccc4[nH]3)CC2)cc1 | – | – | IC50 (HO-2 (rat brain)): > 100 µM; IC50 (HO-1 (rat spleen)): > 100 µM
9 | COc1ccc(CCN2CCC(Nc3nc4ccccc4n3Cc3ccccc3)CC2)cc1 | 60 ± 18 µM | > 100 µM | –
10 | COc1ccc(CCN2CCC(Nc3nc4cc(C)c(C)cc4n3Cc3ccc(F)cc3)CC2)cc1 | 91 ± 45 µM | > 100 µM | –
11 | NCC(=O)c1ccc(Br)cc1 | – | – | IC50 (HO-2 (rat brain)): > 100 µM; IC50 (HO-1 (rat spleen)): > 100 µM
12 | COc1ccc(CCN2CCC(Nc3nc4cc(Cl)c(Cl)cc4n3Cc3ccc(F)cc3)CC2)cc1 | > 100 µM | > 100 µM | –
13 | O=C(/C(=N/O)n1ccnc1)c1ccc(Cl)cc1 | 103 ± 41 µM | 103 ± 2 µM | –
14 | Clc1ccc(/C(Cn2ccnc2)=N\Nc2ccccc2)cc1 | > 100 µM | > 100 µM | –
15 | [N-]=[N+]=NCC(=O)c1ccc(Br)cc1 | > 100 µM | > 100 µM | –
16 | O=C(Cn1cnnc1)c1ccc(Cl)cc1 | > 100 µM | > 100 µM | –
17 | Cc1nccn1CC(=O)CCc1ccc(Cl)cc1.Cl | – | – | IC50 HO-2 (rat brain)/μM (HO-2 (rat brain); [3]): INACTIVE; IC50 HO-1 (rat spleen)/μM (HO-1 (rat spleen); [4]): INACTIVE
18 | Cc1nccn1CC1(CCc2ccc(Cl)cc2)OCCO1.Cl | – | – | IC50 HO-2 (rat brain)/μM (HO-2 (rat brain); [3]): INACTIVE; IC50 HO-1 (rat spleen)/μM (HO-1 (rat spleen); [4]): INACTIVE
19 | Fc1ccc(-c2ccno2)cc1 | > 100 µM | > 100 µM | –
20 | OC(CCc1ccc(Br)cc1)Cn1ccnc1 (racemic) [(±)-4-(4-bromophenyl)-1-(1H-imidazol-1-yl)butan-2-ol hydrochloride] | – | 0.14 ± 0.06 µM | –
21 | Clc1ccc(CC[C@@]2(Cn3ccnc3)OCC(COc3ccc(-c4ccccc4)cc3)O2)cc1 (stereo in doubt) [(2R,4S)-1-{4-(biphenyl-4-yloxymethyl)-2-[2-(4-chloro-phenyl)-ethyl]-[1,3]dioxolan-2-ylmethyl}-1H-imidazole hydrochloride] | – | 2 ± 1 µM | –
22 | O=C(Cn1ccnc1)c1ccc(Cl)c(Cl)c1 [1-(3,4-Dichloro-phenyl)-2-imidazol-1-yl-ethanone] | – | 1.24 ± 0.07 µM | –
23 | O=C(Cn1ccnc1)C12CC3CC(CC(C3)C1)C2 [1-(adamantan-1-yl)-2-imidazol-1-yl-ethanone hydrochloride] | – | 7 ± 1 µM | –
24 | Brc1ccc(C2(Cn3cncn3)OCCO2)cc1 [1-[2-(4-bromo-phenyl)-[1,3]dioxolan-2-ylmethyl]-1H-[1,2,4]triazole] | > 100 µM | – | –

Row | SMILES | IC50 (HO-2 (rat brain); [1]) | IC50 (HO-1 (rat spleen); [2]) | other results
25 | COc1ccc(C(=O)Cn2ccnc2)cc1 [2-Imidazol-1-yl-1-(4-methoxy-phenyl)-ethanone hydrochloride] | – | 39 ± 13 µM | –
26 | CC(C)(C(=O)c1ccccc1)n1ccnc1 [2-Imidazol-1-yl-2-methyl-1-phenyl-propan-1-one] | > 100 µM | – | –
27 | Fc1ccc(CCC2(Cn3ccnc3)OCCO2)cc1 [2-[2-(4-fluorophenyl)ethyl]-2-[(1H-imidazol-1-yl)methyl]-1,3-dioxolane hydrochloride] | > 100 µM | – | –
28 | Ic1ccc(CCC2(Cn3ccnc3)OCCO2)cc1 [2-[2-(4-iodophenyl)ethyl]-2-[(1H-imidazol-1-yl)methyl]-1,3-dioxolane hydrochloride] | > 100 µM | – | –
29 | O=C(Cn1ccnc1)c1cccc2ccccc12 [2-imidazol-1-yl-1-naphthalen-1-yl-ethanone hydrochloride] | – | 2.2 ± 0.1 µM | –
30 | COC(=O)c1cncn1CC(=O)CCc1ccccc1 [3-(2-Oxo-4-phenyl-butyl)-3H-imidazole-4-carboxylic acid methyl ester] | – | 69 ± 19 µM | –
31 | O=C(CCc1ccc(Br)cc1)Cn1ccnc1 [4-(4-bromophenyl)-1-(1H-imidazol-1-yl)butan-2-one hydrochloride] | – | 1.7 ± 0.7 µM | –
32 | O=C(CCc1ccc(Br)cc1)Cn1cncn1 [4-(4-bromophenyl)-1-[1,2,4]triazol-1-yl-butan-2-one hydrochloride] | – | 0.39 ± 0.02 µM | –
33 | CC(=O)CCc1ccc(Br)cc1 [4-(4-bromophenyl)butan-2-one] | – | > 100 µM | –
34 | O=C(CCc1ccc(Cl)cc1)Cn1ccnc1 [4-(4-chlorophenyl)-1-(1H-imidazol-1-yl)butan-2-one hydrochloride] | – | 4.7 ± 0.5 µM | –
35 | OC(CCc1ccc(F)cc1)Cn1ccnc1 (stereo not shown) [4-(4-fluorophenyl)-1-(1H-imidazol-1-yl)butan-2-ol hydrochloride] | – | 1.4 ± 1.1 µM | –
36 | O=C(CCc1ccc(F)cc1)Cn1ccnc1 [4-(4-fluorophenyl)-1-(1H-imidazol-1-yl)butan-2-one hydrochloride] | – | 2.7 ± 0.9 µM | –
37 | O=C(CCc1ccccc1)Cn1cnnn1 [4-Phenyl-1-tetrazol-1-yl-butan-2-one hydrochloride] | 30 ± 4 µM | – | –
38 | O=C(CCc1ccccc1)Cn1ccnn1 [4-phenyl-1-(1H-[1,2,3]triazol-1-yl)butan-2-one] | > 100 µM | – | –
39 | O=C(CCc1ccccc1)Cn1nccn1 [4-phenyl-1-[1,2,3]triazol-2-yl-butan-2-one] | > 100 µM | – | –
40 | O=C(CCc1ccccc1)Cn1cccn1 [4-phenyl-1-pyrazol-1-yl-butan-2-one hydrochloride] | > 100 µM | – | –
41 | O=C(/C=C/c1ccccc1)CCn1ccnc1 [5-(1H-Imidazol-1-yl)-1-phenyl-pent-1-en-3-one hydrochloride] | – | 22.6 ± 0.8 µM | –
42 | Nc1ccccc1SC[C@H]1CO[C@@](CCc2ccc(Cl)cc2)(Cn2ccnc2)O1 [(2R,4R)-2-[2-(4-chlorophenyl)ethyl]-2-[(1H-imidazol-1-yl)methyl]-4-[{(2-aminophenyl)thio}meth-yl]-1,3-dioxolane dihydrochloride] | > 100 µM | – | –
43 | Nc1cccc(SC[C@H]2CO[C@@](CCc3ccc(Cl)cc3)(Cn3ccnc3)O2)c1 [(2R,4R)-2-[2-(4-chlorophenyl)ethyl]-2-[(1H-imidazol-1-yl)methyl]-4-[{(3-aminophenyl)thio}meth-yl]-1,3-dioxolane dihydrochloride] | – | – | IC50 (HO-2 (rat brain)): > 100 µM
44 | Nc1ccc(SC[C@H]2CO[C@@](CCc3ccc(Cl)cc3)(Cn3ccnc3)O2)cc1 [(2R,4R)-2-[2-(4-chlorophenyl)ethyl]-2-[(1H-imidazol-1-yl)methyl]-4-[{(4-aminophenyl)thio}meth-yl]-1,3-dioxolane dihydrochloride] | – | – | IC50 (HO-2 (rat brain)): > 100 µM
45 | Nc1ccccc1SC[C@@H]1CO[C@](CCc2ccc(Cl)cc2)(Cn2ccnc2)O1 [(2S,4S)-2-[2-(4-chlorophenyl)ethyl]-2-[(1H-imidazol-1-yl)methyl]-4-[{(2-aminophenyl)thio}meth-yl]-1,3-dioxolane dihydrochloride] | – | 5 ± 0.3 µM | –
46 | Nc1ccc(SC[C@@H]2CO[C@](CCc3ccc(Cl)cc3)(Cn3ccnc3)O2)cc1 [(2S,4S)-2-[2-(4-chlorophenyl)ethyl]-2-[(1H-imidazol-1-yl)methyl]-4-[{(4-aminophenyl)thio}meth-yl]-1,3-dioxolane dihydrochloride] | – | – | IC50 (HO-1 (rat spleen)): 5 ± 2 µM
47 | COc1ccc(CCN2CCC(Nc3nc4ccccc4n3Cc3ccc(F)cc3)CC2)cc1 [Astemizole, reference compound] | 30 ± 5 µM | – | –
48 | OC(Cn1cncn1)(Cn1cncn1)c1ccc(F)cc1F [Fluconazole, reference compound] | – | 80 ± 6 µM | –
